Source: patent publication US20250230193A1, “CYCLIC COMPOUND HAVING SELECTIVE KRAS INHIBITORY EFFECT ON HRAS AND NRAS” (CHUGAI SEIYAKU KABUSHIKI KAISHA, priority 2022, published 2025)
Where a SMILES comes first, the peptide text is derived from it. Bridges are numbered along the chain shown (N, C = ends). [ ]: non-standard residue; d: D form. The star is where a group is joined. hPhe(3-Cl-4-CF3) = N[C@@H](CCc1ccc(C(F)(F)F)c(Cl)c1)C(=O)O; NPrPhe(4-CF3) = CCCN[C@@H](Cc1ccc(C(F)(F)F)cc1)C(=O)O; NMePhe(4-Me) = CN[C@@H](Cc1ccc(C)cc1)C(=O)O; NMeGly(cPent) = CN[C@H](C(=O)O)C1CCCC1; NMeD = CN[C@@H](CC(=O)O)C(=O)O; NMeL = CN[C@@H](CC(C)C)C(=O)O; Morpholide = C1CN(*)CCO1; Ac5c = NC1(C(=O)O)CCCC1; NBuGly = CCCCNCC(=O)O; Sar = CNCC(=O)O

Experiments:
[1] = target: GDP-bound HRAS wild-type protein (Homo sapiens, UniProt P01112); test: Binding to HRAS by surface plasmon resonance (SPR), Single Cycle Kinetics; conditions: for HRAS/KRAS (ratio of KD value with respect to HRAS to KD value with respect to KRAS): GDP-bound HRAS wild-type vs GDP-bound KRAS wild-type
[2] = target: GDP-bound NRAS wild-type protein (Homo sapiens, UniProt P01111); test: Binding to NRAS by surface plasmon resonance (SPR), Single Cycle Kinetics; conditions: for NRAS/KRAS (ratio of KD value with respect to NRAS to KD value with respect to KRAS): GDP-bound NRAS wild-type vs GDP-bound KRAS wild-type
[3] = SPR, GDP-bound wild-type proteins

Chain of GDP-bound HRAS wild-type protein (P01112 whole entry): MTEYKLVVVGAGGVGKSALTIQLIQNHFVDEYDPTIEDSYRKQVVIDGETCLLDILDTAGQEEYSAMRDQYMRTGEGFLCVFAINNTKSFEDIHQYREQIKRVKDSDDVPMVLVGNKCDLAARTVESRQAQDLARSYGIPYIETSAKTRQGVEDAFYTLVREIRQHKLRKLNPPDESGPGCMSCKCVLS
Chain of GDP-bound NRAS wild-type protein (P01111 whole entry): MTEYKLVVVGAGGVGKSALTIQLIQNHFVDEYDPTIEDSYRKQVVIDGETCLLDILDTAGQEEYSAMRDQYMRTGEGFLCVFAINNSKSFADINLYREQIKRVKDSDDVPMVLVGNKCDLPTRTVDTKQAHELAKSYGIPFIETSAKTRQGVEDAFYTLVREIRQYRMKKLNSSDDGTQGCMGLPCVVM

SMILES: CC[C@H](C)[C@@H]1NC(=O)[C@H](CC(C)C)N(C)C(=O)C[C@@H](C(=O)N2CCOCC2)N(C)C(=O)[C@H](C2CCCC2)N(C)C(=O)[C@](C)(CC)NC(=O)[C@@H]2CCCN2C(=O)[C@H](CCc2cc(F)c(C(F)(F)F)c(F)c2)NC(=O)CN(C)C(=O)[C@H](Cc2ccc(C(F)(F)F)cc2)N2CCCCC[C@@H](C2=O)N(C)C(=O)CN(C)C1=O [PP0500]
- HRAS/KRAS (ratio of KD value with respect to GDP-bound HRAS wild-type protein to KD value with respect to KRAS) ([1]; SPR): B (a compound having 3 or more and less than 10 is denoted as B)
- NRAS/KRAS (ratio of KD value with respect to GDP-bound NRAS wild-type protein to KD value with respect to KRAS) ([2]; SPR): B (a compound having 3 or more and less than 10 is denoted as B)

SMILES: CCC[C@H]1C(=O)N[C@@H](C2CCCC2)C(=O)N(C)CC(=O)N(C)[C@H]2C/C=C\CCN(C2=O)[C@@H](Cc2ccc(C)cc2)C(=O)N(C)CC(=O)N[C@@H](CCc2cc(F)c(C(F)(F)F)c(F)c2)C(=O)N2CC3(CC3)C[C@H]2C(=O)NC2(CC(C)(C)C2)C(=O)N(C)[C@@H](CC(C)(C)C)C(=O)N(C)[C@H](C(=O)N(C)C)CC(=O)N1C [PP2999]
- HRAS/KRAS (ratio of KD value with respect to GDP-bound HRAS wild-type protein to KD value with respect to KRAS) [1, 3]: A (a compound having 10 or more and less than 20 is denoted as A)
- NRAS/KRAS (ratio of KD value with respect to GDP-bound NRAS wild-type protein to KD value with respect to KRAS) [2, 3]: AA (a compound having 20 or more is denoted as AA)

SMILES: CCCOC[C@H]1C(=O)N[C@@H]([C@@H](C)CC)C(=O)N(C)CC(=O)N(C)[C@H]2C/C=C\CCN(C2=O)[C@@H](Cc2ccc(C)cc2)C(=O)N(C)CC(=O)N[C@@H](CCc2ccc(C(F)(F)F)c(OC)c2)C(=O)N2C[C@H](OCC)C[C@H]2C(=O)N(C)C2(CCC2)C(=O)N(C)[C@@H](C(CC)CC)C(=O)N(C)[C@H](C(=O)N(C)C)CC(=O)N1C [PP2323]
- HRAS/KRAS (ratio of KD value with respect to HRAS to KD value with respect to KRAS) ([1]; SPR): A (a compound having 10 or more and less than 20 is denoted as A)
- NRAS/KRAS (ratio of KD value with respect to NRAS to KD value with respect to KRAS) ([2]; SPR): A (a compound having 10 or more and less than 20 is denoted as A)

SMILES: C#CC[C@H]1C(=O)N[C@@H]([C@@H](C)CC)C(=O)N(C)CC(=O)N(C)[C@H]2C/C=C\CCN(C2=O)[C@@H](Cc2ccc(C(F)(F)F)cc2)C(=O)N(C)CC(=O)N[C@@H](CCc2ccc(C(F)(F)F)c(OC)c2)C(=O)N2C[C@H](OCC)C[C@H]2C(=O)NC2(CCC2)C(=O)N(C)[C@@H](C2CCCC2)C(=O)N(C)[C@H](C(=O)N(C)CCC)CC(=O)N1C [PP2059]
- HRAS/KRAS (ratio of KD value with respect to HRAS to KD value with respect to KRAS) ([1]; SPR): A (a compound having 10 or more and less than 20 is denoted as A)
- NRAS/KRAS (ratio of KD value with respect to NRAS to KD value with respect to KRAS) ([2]; SPR): A (a compound having 10 or more and less than 20 is denoted as A)

SMILES: CCCCN1CC(=O)N(C)[C@@H](Cc2ccc(C)cc2)C(=O)N(C)CC(=O)N[C@@H](CCc2ccc(C(F)(F)F)c(Cl)c2)C(=O)N2CCC[C@H]2C(=O)NC2(CCCC2)C(=O)N(C)[C@@H](C2CCCC2)C(=O)N(C)[C@H](C(=O)N2CCOCC2)CC(=O)N(C)[C@@H](CC(C)C)C(=O)N[C@@H]([C@@H](C)CC)C(=O)N(C)CC1=O [PP0021] ([NMeL]I[Sar][NBuGly][NMePhe(4-Me)][Sar][hPhe(3-Cl-4-CF3)]P[Ac5c][NMeGly(cPent)][NMeD]-Morpholide; lactam N-11)
- HRAS/KRAS (ratio of KD for GDP-bound HRAS wild-type to KD for KRAS) ([1]; SPR): C (A compound having a KD ratio of 0.1 or more and less than 3 is denoted as C)
- NRAS/KRAS (ratio of KD for GDP-bound NRAS wild-type to KD for KRAS) ([2]; SPR): C (A compound having a KD ratio of 0.1 or more and less than 3 is denoted as C)

SMILES: CCC[C@H]1C(=O)N[C@@H]([C@@H](C)CC)C(=O)N(C2CC2)CC(=O)N(C)[C@H]2C/C=C\CCN(C2=O)[C@@H](Cc2ccc(C(F)(F)F)cc2)C(=O)N(C)CC(=O)N[C@@H](CCc2ccc(C(F)(F)F)c(OC)c2)C(=O)N2C[C@H](OCC)C[C@H]2C(=O)NC2(CC(C)(C)C2)C(=O)N(C)[C@@H](CC(C)(C)C)C(=O)N(C)[C@H](C(=O)N(C)C)CC(=O)N1C [PP2746]
- HRAS/KRAS (ratio of KD value with respect to GDP-bound HRAS wild-type protein to KD value with respect to KRAS) ([1]; class symbols): A (a compound having 10 or more and less than 20 is denoted as A)
- NRAS/KRAS (ratio of KD value with respect to GDP-bound NRAS wild-type protein to KD value with respect to KRAS) ([2]; class symbols): A (a compound having 10 or more and less than 20 is denoted as A)

SMILES: CCCN1C(=O)CN(C)C(=O)CN(C)C(=O)[C@H]([C@@H](C)CC)NC(=O)[C@H](CC(C)C)N(C)C(=O)C[C@@H](C(=O)N2CCOCC2)NC(=O)[C@H](C2CCCC2)N(C)C(=O)C2(CCCC2)NC(=O)[C@@H]2CCCN2C(=O)[C@H](CCc2ccc(C(F)(F)F)c(Cl)c2)NC(=O)CN(C)C(=O)[C@@H]1Cc1ccc(C(F)(F)F)cc1 [PP0146] ([NMeL]I[Sar][Sar][NPrPhe(4-CF3)][Sar][hPhe(3-Cl-4-CF3)]P[Ac5c][NMeGly(cPent)]D-Morpholide; lactam N-11)
- HRAS/KRAS (ratio of KD for GDP-bound HRAS wild-type to KD for KRAS) ([1]; SPR): B (a compound having 3 or more and less than 10 is denoted as B)
- NRAS/KRAS (ratio of KD for GDP-bound NRAS wild-type to KD for KRAS) ([2]; SPR): B (a compound having 3 or more and less than 10 is denoted as B)
